These results are taken from patent publication US7977387B2, “Aminobenzophenone compounds” (Leo Pharma A/S, priority 2003, dated 2011).

Assay [1] deals with IL-1β. The assay is described as follows: Inhibition of IL-1β secretion in LPS stimulated peripheral blood mononuclear cells. It counts as cell-based. To be noted: PBMC; LPS stimulated human peripheral blood mononuclear cells, 18 hours, ELISA; read-out: The median inhibition concentration (IC50, nM) of IL-1β. In outline:
(§1)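 Human PBMCs (5×10^5 cells/ml, RPMI 1640 + 2% FCS) pre-treated with compound 30 min, then stimulated with LPS ([…]) for 18 h. Secreted IL-1β and TNF-α quantified by ELISA; IC50 values calculated.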
In general terms: An ELISA detects its analyte on a solid surface through an enzyme-linked reagent.

In assay [2] the test system is TNF-α. The assay is described as follows: Inhibition of TNF-α secretion in LPS stimulated peripheral blood mononuclear cells. It is filed as cell-based. To be noted: PBMC; LPS stimulated human peripheral blood mononuclear cells, 18 hours, ELISA; read-out: The median inhibition concentration (IC50, nM) of TNF-α. A digest of the protocol:
as §1

For assay [3], the target named is T1, p38α MAP kinase (Homo sapiens, UniProt Q16539).
T1 construct: made in house; host or cells: COS-1 cells (transient co-transfection; anti-FLAG M2 immunoprecipitation)
T1 sequence (Q16539 whole entry): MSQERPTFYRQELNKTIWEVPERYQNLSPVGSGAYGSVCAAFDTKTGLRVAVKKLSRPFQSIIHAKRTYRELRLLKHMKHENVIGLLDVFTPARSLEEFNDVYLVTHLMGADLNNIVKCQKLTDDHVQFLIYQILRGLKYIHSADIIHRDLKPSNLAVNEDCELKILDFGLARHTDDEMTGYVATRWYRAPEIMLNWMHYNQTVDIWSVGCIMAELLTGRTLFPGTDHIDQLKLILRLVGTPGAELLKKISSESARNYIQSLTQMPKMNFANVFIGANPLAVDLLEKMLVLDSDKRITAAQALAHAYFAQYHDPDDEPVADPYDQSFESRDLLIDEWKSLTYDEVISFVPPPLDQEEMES
The assay is described as follows: p38α MAP kinase assay (immunoprecipitated FLAG-p38α, GST-ATF-2 substrate). It is filed as biochemical. To be noted: FLAG-p38α from COS-1 cells, 50 μM ATP; read-out: p38 MAP kinase IC50. On the procedure: COS-1 cells (derived from African green monkey kidney fibroblast-like cell containing wild-type T antigen under control of the SV40 promotor) were obtained from ATCC (ATCC no. CRL-1650) and grown in growth medium (DMEM without phenoired, 10% FCS, 2 mM L-glutamine, 100 U penicillin and 100 μg streptomycin/ml) at 37° C. with 5% CO2. The cells were passaged twice a week by trypsination (0.25% trypsin, 1 mM EDTA in PBS) and were split 1:10. The medium was changed every second or third day. The cell line was regularly tested with the Mycoplasma PCR Primer Set (Stratagene) and found to be free of Mycoplasma. Tissue culture media, FCS, L-glutamine and penicillin and streptomycin are from Bribco BRL, Gaithersburg, Md., USA.
Transient Expression of COS-1 Cells
On day one COS-1 cells were seeded in 143 cm^2 petri dish with a density of 2×10^4 celler/cm^2 in growth medium. At day 2 the cells were co-transfected with 5 μg (total) of experimental plasmid DNA, expressing the FLAG-p38α and FLAG-MKK6(EE). The plasmids were introduced into the COS-1 cells in serum-free medium using DOTAP™ (Boehringer-Mannheim, Mannheim, Germany). Plasmid DNA was prepared and purified using the QIAGEN EndoToxin-free Maxiprep-500 kit (Hilden, Germany). Briefly, DNA and DOTAP™ were mixed for exactly 15 min. at 37° C. In the CO2 incubator. […]

Assay [4] concerns LPS induced TNF-α response. The assay is described as follows: In vivo screening model of LPS induced TNF-α response in mice. Conditions: Mus musculus, mice (C3H/HeN), dosed 1 hour prior to LPS, plasma TNF-α 80-90 minutes after LPS, vs LPS treated control group, read-out: In vivo inhibition of LPS induced TNF-α production (in %). On the procedure: In Vivo Screening Model of LPS Induced TNF-α Response in Mice
To study the effect of compounds of the present invention in vivo, an in vivo screening model of LPS induced TNF-α response in mice was set up as follows: Groups of 6 mice (C3H/HeN, female, about 8 weeks (20 g), Bomholtgaard) were dosed with test compounds in suspension vehicle 1 hour prior to LPS administration (LPS from E. coli 055:B5, L-4005, Sigma). At time 0, the mice were dosed ip with 1.0 mg LPS/kg. After anesthetization with Hypnorm/Dormicum, the mice were bled from the periorbital venous plexus 80-90 minutes after LPS administration. The blood samples were sampled in EDTA stabilised tubes and centrifuged at 4000 rpm for 10 minutes at 4° C. The plasma level of TNF-α was analysed by ELISA. Compound 156 of WO 98/32730 was used as reference compound. The plasma level of TNF-α was determined using a sandwich ELISA. Microtiter plates were coated with a monoclonal antibody against mouse TNF-α, washed and blocked with a casein buffer. Samples of mouse TNF-α recombinant standards were added to the wells of the microtiter plates and incubated. All standards were tested in triplicate, all plasma samples in single. After sample and standard incubation, the plates were washed and incubated with biotinylated polyclonal secondary antibody against mouse TNF-α and washed. Enzyme conjugate was added to all wells and incubated. Substrate was added and the enzyme/substrate reaction stopped after 15 minutes at room temperature with 1M H2SO4. The colour development (OD) was measured at 450 nm on an ELISA reader and the background OD at 620 nm was subtracted. […] The results of the tested compounds are indicated as a percentage inhibition compared to an LPS treated control group. Compounds were tested at 10 mg/kg. The Mann-Whitney test was used to compare drug treated groups to the LPS treated control group (p<0.05).

Structures are written as SMILES.

The term inhibition denotes the percentage by which the read-out fell short of the control. Turning to `Cc1ccc(C(=O)NCCO)cc1C(=O)c1ccc(Nc2ccccc2N)cc1Cl` [Compound 112, 3-[4-(2-Aminophenylamino)-2-chlorobenzoyl]-N-(2-hydroxyethyl)-4-methylbenzamide], the IC50 in assay [1] turned out to be 4 nM; in assay [2], 0.6 nM; in assay [3], 2 nM. In assay [4], the inhibition at 10 mg/kg was found to be 96%.
